Molecular target: PD-1/PD-L1 (Homo sapiens (Human), UniProt Q9NZQ7)
Experiment: PD-1/PD-L1 binding assay (HTRF)
Description: The assays were conducted in a standard black 384-well polystyrene plate with a final volume of 20 μL. Inhibitors were first serially diluted in DMSO and then added to the plate wells before the addition of other reaction components. The final concentration of DMSO in the assay was 1%. The assays were carried out at 25° C. in the PBS buffer (pH 7.4) with 0.05% Tween-20 and 0.1% BSA. Recombinant human PD-L1 protein (19-238) with a His-tag at the C-terminus was purchased from AcroBiosystems (PD1-H5229). Recombinant human PD-1 protein (25-167) with Fc tag at the C-terminus was also purchased from AcroBiosystems (PD1-H5257). PD-L1 and PD-1 proteins were diluted in the assay buffer and 10 μL was added to the plate well. Plates were centrifuged and proteins were preincubated with inhibitors for 40 minutes. The incubation was followed by the addition of 10 μL of HTRF detection buffer supplemented with Europium cryptate-labeled anti-human IgG (PerkinElmer-AD0212) specific for Fc and anti-His antibody conjugated to SureLight®-Allophycocyanin (APC, PerkinElmer-AD0059H). After centrifugation, the plate was incubated at 25° C. for 60 min. before reading on a PHERAstar FS plate reader (665 nm/620 nm ratio). Final concentrations in the assay were […], 10 nM PD-L1, 1 nM europium anti-human IgG and 20 nM anti-His-Allophycocyanin. IC50 determination was performed by fitting the curve of percent control activity versus the log of the inhibitor concentration using the GraphPad Prism 5.0 software.

Sequence of PD-1/PD-L1 (Q9NZQ7 19-238): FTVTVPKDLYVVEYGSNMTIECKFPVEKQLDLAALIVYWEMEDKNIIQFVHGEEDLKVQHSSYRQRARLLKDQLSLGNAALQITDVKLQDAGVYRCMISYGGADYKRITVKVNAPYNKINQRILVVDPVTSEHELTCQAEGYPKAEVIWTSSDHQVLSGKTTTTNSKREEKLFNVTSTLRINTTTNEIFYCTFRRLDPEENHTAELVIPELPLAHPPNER

IC50 | Structure (SMILES)
≤ 10 nM | CN1CCc2c(nc(C(=O)Nc3cccc(-c4cccc(NC(=O)c5nc6c(n5C)CCN(C[C@H]5CC[C@H](C(=O)O)CC5)C6)c4Cl)c3C#N)n2C)C1 [Compound 149, trans-4-((2-((2-chloro-2′-cyano-3′-(1,5-dimethyl-4,5,6,7-tetrahydro-1H-imidazo[4,5-c]pyridine-2-carboxamido)-[1,1′-biphenyl]-3-yl)carbamoyl)-1-methyl-1,4,6,7-tetrahydro-5H-imidazo[4,5-c]pyridin-5-yl)methyl)cyclohexane-1-carboxylic acid]
≤ 10 nM | CN1CCc2c(nc(C(=O)Nc3cccc(-c4cccc(NC(=O)c5nc6c(n5C)CCN(CC[C@H]5CC[C@H](C(=O)O)CC5)C6)c4Cl)c3C#N)n2C)C1 [Compound 150, trans-4-(2-(2-(2-chloro-2′-cyano-3′-(1,5-dimethyl-4,5,6,7-tetrahydro-1H-imidazo[4,5-c]pyridine-2-carboxamido)biphenyl-3-ylcarbamoyl)-1-methyl-6,7-dihydro-1H-imidazo[4,5-c]pyridin-5(4H)-yl)ethyl)cyclohexane-1-carboxylic acid]
≤ 10 nM | CCN1CCc2c(nc(C(=O)Nc3cccc(-c4cccc(NC(=O)c5nc6c(n5C)CCN(CC[C@H]5CC[C@H](C(=O)O)CC5)C6)c4Cl)c3C#N)n2C)C1 [Compound 151, trans-4-(2-(2-((2-chloro-2′-cyano-3′-(5-ethyl-1-methyl-4,5,6,7-tetrahydro-1H-imidazo[4,5-c]pyridine-2-carboxamido)-[1,1′-biphenyl]-3-yl)carbamoyl)-1-methyl-1,4,6,7-tetrahydro-5H-imidazo[4,5-c]pyridin-5-yl)ethyl)cyclohexane-1-carboxylic acid]
≤ 10 nM | CC(C)N1CCc2c(nc(C(=O)Nc3cccc(-c4cccc(NC(=O)c5nc6c(n5C)CCN(CC[C@H]5CC[C@H](C(=O)O)CC5)C6)c4Cl)c3C#N)n2C)C1 [Compound 152, trans-4-(2-(2-((2-chloro-2′-cyano-3′-(5-isopropyl-1-methyl-4,5,6,7-tetrahydro-1H-imidazo[4,5-c]pyridine-2-carboxamido)-[1,1′-biphenyl]-3-yl)carbamoyl)-1-methyl-1,4,6,7-tetrahydro-5H-imidazo[4,5-c]pyridin-5-yl)ethyl)cyclohexane-1-carboxylic acid]
≤ 10 nM | Cn1c(C(=O)Nc2cccc(-c3cccc(NC(=O)c4nc5c(n4C)CCN(C4CCOCC4)C5)c3C#N)c2Cl)nc2c1CCN(CC[C@H]1CC[C@H](C(=O)O)CC1)C2 [Compound 153, trans-4-(2-(2-((2-chloro-2′-cyano-3′-(1-methyl-5-(tetrahydro-2H-pyran-4-yl)-4,5,6,7-tetrahydro-1H-imidazo[4,5-c]pyridine-2-carboxamido)-[1,1′-biphenyl]-3-yl)carbamoyl)-1-methyl-1,4,6,7-tetrahydro-5H-imidazo[4,5-c]pyridin-5-yl)ethyl)cyclohexane-1-carboxylic acid]
≤ 10 nM | CCN1CCc2c(nc(C(=O)Nc3cccc(-c4cccc(NC(=O)c5nc6c(n5C)CCN(CC[C@H]5CC[C@H](C(=O)O)CC5)C6)c4C#N)c3Cl)n2C)C1 [Compound 154, trans-4-(2-(2-((2′-chloro-2-cyano-3′-(5-ethyl-1-methyl-4,5,6,7-tetrahydro-1H-imidazo[4,5-c]pyridine-2-carboxamido)-[1,1′-biphenyl]-3-yl)carbamoyl)-1-methyl-1,4,6,7-tetrahydro-5H-imidazo[4,5-c]pyridin-5-yl)ethyl)cyclohexane-1-carboxylic acid]
≤ 10 nM | CC(C)N1CCc2c(nc(C(=O)Nc3cccc(-c4cccc(NC(=O)c5nc6c(n5C)CCN(CC[C@H]5CC[C@H](C(=O)O)CC5)C6)c4C#N)c3Cl)n2C)C1 [Compound 155, trans-4-(2-(2-((2′-chloro-2-cyano-3′-(5-isopropyl-1-methyl-4,5,6,7-tetrahydro-1H-imidazo[4,5-c]pyridine-2-carboxamido)-[1,1′-biphenyl]-3-yl)carbamoyl)-1-methyl-1,4,6,7-tetrahydro-5H-imidazo[4,5-c]pyridin-5-yl)ethyl)cyclohexane-1-carboxylic acid]
≤ 10 nM | CCN1CCc2c(nc(C(=O)Nc3cccc(-c4cccc(NC(=O)c5nc6c(n5C)CCN(C[C@H]5CC[C@H](C(=O)O)CC5)C6)c4C#N)c3Cl)n2C)C1 [Compound 156, trans-4-((2-((2′-chloro-2-cyano-3′-(5-ethyl-1-methyl-4,5,6,7-tetrahydro-1H-imidazo[4,5-c]pyridine-2-carboxamido)-[1,1′-biphenyl]-3-yl)carbamoyl)-1-methyl-1,4,6,7-tetrahydro-5H-imidazo[4,5-c]pyridin-5-yl)methyl)cyclohexane-1-carboxylic acid]
≤ 10 nM | Cn1c(C(=O)Nc2cccc(-c3cccc(NC(=O)c4nc5c(n4C)CCN(C[C@H]4CC[C@H](C(=O)O)CC4)C5)c3C#N)c2Cl)nc2c1CCN(C1CCOCC1)C2 [Compound 157, trans-4-((2-((2′-chloro-2-cyano-3′-(1-methyl-5-(tetrahydro-2H-pyran-4-yl)-4,5,6,7-tetrahydro-1H-imidazo[4,5-c]pyridine-2-carboxamido)-[1,1′-biphenyl]-3-yl)carbamoyl)-1-methyl-1,4,6,7-tetrahydro-5H-imidazo[4,5-c]pyridin-5-yl)methyl)cyclohexane-1-carboxylic acid]
≤ 10 nM | Cc1c(-c2nc3c(s2)CN(C(=O)CN(C)C(C)C)C3)cccc1-c1cccc(NC(=O)c2nc3c(n2C)CCN(C[C@H]2CC[C@H](C(=O)O)CC2)C3)c1Cl [Compound 158, trans-4-((2-(2-chloro-3′-(5-(2-(isopropyl(methyl)amino)acetyl)-5,6-dihydro-4H-pyrrolo[3,4-d]thiazol-2-yl)-2′-methylbiphenyl-3-ylcarbamoyl)-1-methyl-6,7-dihydro-1H-imidazo[4,5-c]pyridin-5(4H)-yl)methyl)cyclohexane-1-carboxylic acid]
≤ 10 nM | Cc1c(-c2nc3c(o2)CN(C(=O)CN2CC[C@](C)(C(=O)O)C2)C3)cccc1-c1cccc(NC(=O)c2nc3c(n2C)CCN(C)C3)c1Cl [Compound 163, (S)-1-(2-(2-(2′-chloro-3′-(1,5-dimethyl-4,5,6,7-tetrahydro-1H-imidazo[4,5-c]pyridine-2-carboxamido)-2-methyl-[1,1′-biphenyl]-3-yl)-4,6-dihydro-5H-pyrrolo[3,4-d]oxazol-5-yl)-2-oxoethyl)-3-methylpyrrolidine-3-carboxylic acid]
≤ 10 nM | Cc1c(-c2nc3c(o2)CN(C(=O)CN[C@@H](C)CO)C3)cccc1-c1cccc(NC(=O)c2nc3c(n2C)CCN(C)C3)c1Cl [Compound 164, (S)—N-(2-chloro-3′-(5-((S)-(1-hydroxypropan-2-yl)glycyl)-5,6-dihydro-4H-pyrrolo[3,4-d]oxazol-2-yl)-2′-methyl-[1,1′-biphenyl]-3-yl)-1,5-dimethyl-4,5,6,7-tetrahydro-1H-imidazo[4,5-c]pyridine-2-carboxamide]
≤ 10 nM | Cc1c(-c2nc3c(o2)CN(C(=O)CN[C@H]2C[C@@H](O)C2)C3)cccc1-c1cccc(NC(=O)c2nc3c(n2C)CCN(C)C3)c1Cl [Compound 165, N-(2-chloro-3′-(5-((cis-3-hydroxycyclobutyl)glycyl)-5,6-dihydro-4H-pyrrolo[3,4-d]oxazol-2-yl)-2′-methyl-[1,1′-biphenyl]-3-yl)-1,5-dimethyl-4,5,6,7-tetrahydro-1H-imidazo[4,5-c]pyridine-2-carboxamide]
≤ 10 nM | Cc1c(-c2nc3c(o2)CN(C(=O)CN[C@H]2C[C@H](O)C2)C3)cccc1-c1cccc(NC(=O)c2nc3c(n2C)CCN(C)C3)c1Cl [Compound 166, N-(2-chloro-3′-(5-((trans-3-hydroxycyclobutyl)glycyl)-5,6-dihydro-4H-pyrrolo[3,4-d]oxazol-2-yl)-2′-methyl-[1,1′-biphenyl]-3-yl)-1,5-dimethyl-4,5,6,7-tetrahydro-1H-imidazo[4,5-c]pyridine-2-carboxamide]
≤ 10 nM | Cc1c(-c2nc3c(o2)CN(C(=O)CN2CCC(C(=O)O)CC2)C3)cccc1-c1cccc(NC(=O)c2nc3c(n2C)CCN(C)C3)c1Cl [Compound 167, 1-(2-(2-(2′-chloro-3′-(1,5-dimethyl-4,5,6,7-tetrahydro-1H-imidazo[4,5-c]pyridine-2-carboxamido)-2-methyl-[1,1′-biphenyl]-3-yl)-4,6-dihydro-5H-pyrrolo[3,4-d]oxazol-5-yl)-2-oxoethyl)piperidine-4-carboxylic acid]
≤ 10 nM | Cc1c(-c2nc3c(o2)CN(C(=O)CN(C)C)C3)cccc1-c1cccc(NC(=O)c2nc3c(n2C)CCN(C2CCC(C)(C(=O)O)CC2)C3)c1Cl (centres unmarked) [Compound 168, 4-(2-((2-chloro-3′-(5-(dimethylglycyl)-5,6-dihydro-4H-pyrrolo[3,4-d]oxazol-2-yl)-2′-methyl-[1,1′-biphenyl]-3-yl)carbamoyl)-1-methyl-1,4,6,7-tetrahydro-5H-imidazo[4,5-c]pyridin-5-yl)-1-methylcyclohexane-1-carboxylic acid]
≤ 10 nM | CCN(C)CC(=O)N1Cc2nc(-c3cccc(-c4cccc(NC(=O)c5nc6c(n5C)CCN(CCC5CCC(C(=O)O)CC5)C6)c4Cl)c3Cl)oc2C1 (centres unmarked) [Compound 169, 4-(2-(2-((2,2′-dichloro-3′-(5-(N-ethyl-N-methylglycyl)-5,6-dihydro-4H-pyrrolo[3,4-d]oxazol-2-yl)-[1,1′-biphenyl]-3-yl)carbamoyl)-1-methyl-1,4,6,7-tetrahydro-5H-imidazo[4,5-c]pyridin-5-yl)ethyl)cyclohexane-1-carboxylic acid]

Source: patent US10806785B2, “Immunomodulator compounds and methods of use” (Incyte Corporation, priority 2016, dated 2020)
